Data: US20070293399A1, “SUBSTITUTED DIAMINO-1,3,5-TRIAZINES, PROCESSES FOR THEIR PREPARATION AND THEIR USE AS HERBICIDES AND CROP GROWTH REGULATORS” (Bayer CropScience AG, priority 2006, published 2007)

Key:
[1] = system: Stellaria media, Lolium multiflorum, Amaranthus retroflexus, Sinapis alba, Avena sativa and Setaria viridis; assay: Pre-emergence herbicidal action (greenhouse pot test); type: in vivo; settings: application rate of 1 kg or less of active substance per hectare; scored visually after 3 to 4 weeks in comparison to untreated controls
Text: Seeds or rhizome pieces of mono- and dicotyledonous weed plants were placed in sandy loam in plastic pots and covered with soil. The inventive compounds, which have been formulated in the form of wettable powders or emulsion concentrates, were then applied to the surface of the covering soil as an aqueous suspension or emulsion in different dosages with an application rate of from 600 to 800 l/ha of water (converted).

[2] = system: Sinapis alba, Echinochloa crus-galli, Lolium multiflorum, Stellaria media, Cyperus iria, Amaranthus retroflexus, Setaria viridis, Avena sativa, Lamium …; assay: Post-emergence herbicidal action (greenhouse pot test); type: in vivo; settings: application rate of 1 kg and less of active substance per hectare; treated at three-leaf stage; scored visually after approx. 3 to 4 weeks in comparison to untreated controls
Procedure: Seeds or rhizome pieces of mono- and dicotyledonous weeds were placed in sandy loam in plastic pots, covered with soil and grown in a greenhouse under good growth conditions. Three weeks after the sowing, the test plants were treated at the three-leaf stage. The inventive compounds formulated as spray powders or as emulsion concentrates were sprayed onto the green plant parts in various dosages with an application rate of from 600 to 800 l/ha of water (converted). After the test plants had been left to stand in the greenhouse under optimal growth conditions for approx. 3 to 4 weeks, the action of the preparations was scored visually in comparison to untreated controls. The inventive compositions also had good post-emergence herbicidal activity against a wide spectrum of economically important gramineous and broadleaf weeds.

Structure (SMILES)	herbicidal action against harmful plants in the pre-emergence method [1]	herbicidal action against harmful plants in the post-emergence method [2]
CC(=Nc1nc(N[C@@H]2CCCc3ccccc32)nc([C@@H](C)F)n1)N(C)C [Compound 2.159, N′-{4-[(1R)-1-Fluoroethyl]-6-[(1R)-1,2,3,4-tetrahydronaphth-1-ylamino]-1,3,5-triazin2-yl}-N,N-dimethylethanimide amide]	very good herbicidal action	very good herbicidal action
CC(=Nc1ncnc(N[C@H]2c3cc(C)ccc3C[C@@H]2C)n1)N(C)C [Compound 2.160]	very good herbicidal action	very good herbicidal action
Cc1ccc2c(c1)[C@H](Nc1nc(C)nc(N=CN(C)C)n1)[C@@H](C)C2 [Compound 2.170]	very good herbicidal action	very good herbicidal action
C[C@@H]1Cc2ccccc2[C@@H]1Nc1nc(N=CN(C)C)nc(C(F)F)n1 [Compound 2.175]	very good herbicidal action	very good herbicidal action
Cc1ccc2c(c1)[C@H](Nc1nc(N=CN(C)C)nc(C(F)F)n1)[C@H](C)C2 [Compound 2.176]	very good herbicidal action	very good herbicidal action
CC(=Nc1nc(N[C@H]2c3cc(C)ccc3C[C@H]2C)nc(C(F)F)n1)N(C)C [Compound 2.177]	very good herbicidal action	very good herbicidal action
Cc1ccc2c(c1)[C@H](Nc1nc(N=CN3CCCCC3)nc(C(F)F)n1)[C@H](C)C2 [Compound 2.181]	very good herbicidal action	very good herbicidal action
Cc1ccc2c(c1)[C@H](Nc1nc(C=O)nc(C(F)F)n1)[C@H](C)C2 [Compound 2.190]	very good herbicidal action	very good herbicidal action
CCOC(C)=Nc1nc(N[C@H]2c3cc(C)ccc3C[C@H]2C)nc(C(F)F)n1 [Compound 2.191]	very good herbicidal action	very good herbicidal action
C[C@@H](F)c1nc(C=O)nc(N[C@@H]2CCCc3ccccc32)n1 [Compound 2.193]	very good herbicidal action	very good herbicidal action
Cc1ccc2c(c1)[C@H](Nc1ncnc(C=O)n1)[C@H](C)C2 [Compound 2.194]	very good herbicidal action	very good herbicidal action
Cc1ccc2c(c1)[C@H](Nc1nc(C=O)nc([C@@H](C)F)n1)[C@H](C)C2 [Compound 2.195]	very good herbicidal action	very good herbicidal action
